One assay deals with SK-N-AS cells. The assay can be described thus: CellTiter 96 proliferation, SK-N-AS. The settings on record: Homo sapiens, 24 h. The class given is cell-based. On the procedure:
(§1) CellTiter 96® Aqueous One Solution Cell Proliferation assay (Promega, Madison, WI, USA) was used to examine proliferation, and alamarBlue® assay (Thermo Fisher Scientific, Inc.) was used to evaluate viability. Cells, concentrations ranging from 5 × 10^3 to 1.5 × 10^4, depending on cell type due to wide variation in growth characteristics between established cell lines and PDX cells, were plated in 96-well plates and treated with increasing doses of 792 or 1154 for 24 h. CellTiter 96® or alamarBlue® dye (10 µL) was added for proliferation and viability assays, respectively. A microplate reader (Epoch Microplate Spectrophotometer, BioTek Instruments, Winooski, VT) measured absorbance at 490 nm for CellTiter 96® and at 570 nm for alamarBlue®, using 600 nm as a reference. […] Experiments were completed with at least three biologic replicates, and data reported as fold change ± SEM.
Supplemental Figure S3: Novel PP2A activating compounds decrease d neuroblastoma proliferation and viability. SK-N-AS and SK-N-BE(2) cells (1.5 x 104) were plated in 96-well plates and treated with increasing doses of nine PP2A activating compounds for 24 […]
novel PP2A activators tested in (A) SK-N-AS and (B) SK-N-BE(2) cells. Similarly, PP2A […]
(D) SK-N-BE(2) cells. Data reported as mean fold change ± SEM, and experiments were repeated with at least three biologic replicates. […]

The test system of another assay is CIP2A. Kind of assay: Immunoblotting of CIP2A in neuroblastoma cells. The assay is classed as cell-based, human. The settings on record: increasing concentrations, 24 h; all cell lines except WAC2 and COA129 treated with 792. Here is the method:
Following treatment, cells were lysed on ice using radioimmunoprecipitation (RIPA) buffer with phosphatase inhibitors (P5726, Sigma Aldrich), protease inhibitors (P8340, Sigma Aldrich), and phenylmethanesulfonylfluoride (PMSF, P7626, Sigma Aldrich) for 60 min. Cell lysates were centrifuged at 17,000 rpm for 30 min at 4 °C. Pierce™ BCA Protein Assay (Thermo Fisher Scientific, Inc.) determined protein concentration and proteins were separated by electrophoresis on sodium dodecyl sulfate polyacrylamide (SDS-PAGE) gels. Expected size of the targeted proteins was confirmed using molecular weight markers (Precision Plus Protein Kaleidoscope, Bio-Rad, Hercules, CA, USA). […] Immunoblots were developed with Luminata Classico or Crescendo Western horseradish peroxidase substrate (EMD Millipore, Burlington, MA, USA). Either anti-vinculin or anti-β-actin (as available from manufacturer) served as an internal loading control. We performed densitometry of Western blots using ImageJ software (Ver 1.49, http://imagej.nih.gov/ij (accessed on 9 February 2022).
(A western blot detects proteins with antibodies after separation by electrophoresis.)

Another assay has as its system SH-EP cells. The assay can be described thus: Cell cycle analysis by flow cytometry (PI), SH-EP. The assay is classed as cell-based, human. The settings on record: 24 h; for Mean % G1 (± SEM) / Mean % G2 (± SEM) / Mean % S (± SEM) / percentage of cells in the S phase / percentage of cells in G1: SH-EP, 15 μM; for percentage of cells in the S phase: untreated 30.9 ± 2.1; for percentage of cells in G1: untreated 42.6 ± 2.4. On the procedure:
To evaluate cell cycle, cells (1 × 10^6) were plated and maintained in respective media with reduced FBS (4%) for cell synchronization. […] Cells were washed with phosphate-buffered saline (PBS) and fixed at 4 °C for 30 min with 100% ethanol. Following a second PBS wash, cells were stained with propidium iodide (PI, Invitrogen, Waltham, MA, USA), RNAse A (0.1 mg/mL, Qiagen, Germantown, MD, USA), and 0.1% TritonX (Active Motif, Carlsbad, CA, USA), and FACSCalibur^TM Flow Cytometer (BD Biosciences, Franklin Lakes, NJ, USA) was used for examination. FlowJo software (FlowJo, LLC, Ashland, OR, USA) was used for data analysis. Data reported as mean percentage cells in phase ± SEM.

Another assay concerns SK-N-BE(2) cells. The assay can be described thus: CellTiter 96 proliferation, SK-N-BE(2). The assay is classed as cell-based. The settings on record: Homo sapiens, SKNBE2, 24 h. On the procedure:
as §1, with “SEM. […]” for “SEM.”
Supplemental Table S1: Neuroblastoma cells had the highest sensitivity to 792 and 1154.
(A) SK-N-AS and (B) SK-N-BE(2) cells (1.5 x 104) were plated in 96-well plates and treated with increasing doses of nine PP2A activating compounds for 24 hours. Compounds 792 and 1154 had the lowest LD50s of the nine compounds investigated in both cell lines.
Supplemental Figure S4: SK-N-AS cells were treated with FTY720 (0, 5 μM), 792 (10 μM), or 1154 (10 μM) for 24 hours and PP2A activity was measured. […]

As a reminder, the IC50 is the point on the concentration scale where inhibition reaches its midpoint. For the compound `O=S(=O)(N[C@H]1COC[C@@H](n2c3ccc(Cl)cc3c3cc(Cl)ccc32)[C@@H]1O)c1ccc(OC(F)(F)F)cc1` [ATUX-792], the IC50 with SK-N-AS cells came to 23.9 µM. Further, the “expression of CIP2A” value in the assay on CIP2A is on record as “decreased”. In addition, in the assay with SH-EP cells (SH-EP cells), the “percent of cells in subG1” value is “significant increase in the percent of cells in subG1”. Besides, in the assay with SH-EP cells, the “Mean % G1 (± SEM)” value is 58.4 (± 2.3) %, the “Mean % G2 (± SEM)” value is listed as 12.1 (± 2.6) %, the “Mean % S (± SEM)” value is recorded as 21.0 (± 1.4) % and the percentage of cells in the S phase came out at 21 ± 1.4%. The percentage of cells in G1 in the assay on SH-EP cells amounted to 58.4 ± 2.3%. In the assay with SK-N-BE(2) cells, the IC50 turned out to be 17.2 µM.

In the case of `O=S(=O)(NC1CCCC(N2c3ccccc3CCc3ccccc32)C1O)c1ccc(OC(F)(F)F)cc1` (centres unmarked) [DBK-1154], the IC50 with SK-N-AS cells worked out at 22.4 µM. Also, in the assay with CIP2A, the “expression of CIP2A” value is given as “decreased”. Moreover, in the assay on SH-EP cells, the “Mean % G1 (± SEM)” value is given as 52.0 (± 2.2) %, the “Mean % G2 (± SEM)” value is on record as 14.6 (± 4.9) %, the “Mean % S (± SEM)” value is given as 26.3 (± 2.0) % and the percentage of cells in the S phase was found to be 26.3 ± 2%. Besides, the percentage of cells in G1 in the assay with SH-EP cells is 52 ± 2.2%. In the assay on SK-N-BE(2) cells, this compound had an IC50 of 23.8 µM.

(Values after PMC9026148, “Pre-Clinical Study Evaluating Novel Protein Phosphatase 2A Activators as Therapeutics for Neuroblastoma” (Cancers, 2022).)
